Experimental data reported in US20120016019A1, “PHARMACEUTICAL COMPOSITION FOR TREATING OR PREVENTING CANCER” (priority 2010, published 2012).
“And” between values parts separate entries of the source, which are not always exact repeats. Identical values can stand only once. Like-named read-outs stand apart in the source and are kept apart here.

Tests used:
HeLa = conditions: human, 0 h, 220 nM
Protocol: (§1) Cells were plated into 48-well Corning CellBind™ plates at densities of 20,000 cells for normal cells and 10,000˜20,000 cells for cancer cells. 24 to 48 h after plating, cells were treated with the composition according to the invention at concentrations of 4.5e-2M. The first time point treated with the composition of the invention is 0 h. At 3 days after the first treatment with the composition of the invention, medium was changed and the composition of the invention at the same concentrations were added to the cultured cells.
Cells were harvested using Trypsin-EDTA at the designated time points. When total cells for each well were counted with a Beckman-Coulter Z1 Particle Characterization Unit, the vertical axis represents 1/20 of cell number in the Figures attached to the specification, while when counted with a Beckman-Coulter Vi-Cell, the vertical axis represents cell number in the Figures. Two 48-well plates were used per cell line, and they were measured at 0 h, 12 h, 24 h, 48 h, 4 d and 7 d, respectively.
The viability was determined by using the trypan blue staining in the well of cell counting.

BJ = conditions: for The viability / The absorbance, group - Blank / The absorbance, Mean value / The absorbance: BJ; for The absorbance, group - Blank: mean minus blank; for The absorbance: single value; for The cytotoxicity: human, 220 nM
Protocol: (§2) Cancer cell lines HCC 1419, MCF-7, MDA-MB-468, SKBR3, PC3, HT1299, Saos-2, C-6, AsPc, MDA-MB-231, RKO, HeLa and TT, and normal cell lines HME 50 HT, BJ and CCD-1074sk were tested for changes in metabolism (XTT assay) and cell death (cell counts).
as §1
(§3) The XTT assay is an accepted analysis technique for viability and cytotoxicity of anticancer drugs or other pharmaceutical compositions. Cells were seeded in a 96-well tissue culture plate at a density of 10,000 cells for normal cells and 5,000 cells for cancer cells. After incubation period, the formazan dye formed was quantitated using an ELISA reader. The optimal wavelength used in experiments was 500 nm, and it was measured at 0 h, 12 h, 24 h, 48 h, 4 d and 7 d, respectively. The obtained values were generated using the software SoftMax Pro 4.8.
(§4) The cell viability was calculated according to the manufacturer's instructions as follows (the term “blank” means XTT in medium only):
(§5) Cellular cytotoxicity was calculated according to the manufacturer's instructions as follows: […]

PC-3 = conditions: for The absorbance, Mean value / The absorbance / The absorbance, group - Blank: PC-3, XTT 500 nm; for The absorbance: single wells
Protocol: as §2, §1, §3, §4, §5

C-6 = assay: Cell counts, C-6; assay type: cell-based, rat
Protocol: In the 1st plate, cells were treated with the composition according to the invention and medium was changed at 0 h and 3 d. […] As a result, LC-50 curves were generated in the 1st week.
At 0 h of the 2nd week, medium was exchanged with untreated medium for the remainder of the experiment. The untreated controls were not measured in the 2nd week (recovery) due to overconfluence by the end of the 1st week. As a result, Recovery curves were generated in the 2nd week.
C-6 is glioblastoma cells.

CCD-1074sk = assay type: cell-based; conditions: for cell counts: single count
Protocol: As a result, LC-50 curves were generated in the 1st week.
In the 2nd plate, 7 d of the 1st week (LC-50) is the same as 0 h of the 2nd week (recovery).
At 0 h of the 2nd week, medium was exchanged with untreated medium for the remainder of the experiment. […] As a result, Recovery curves were generated in the 2nd week.

CC(=O)O[C@H]1C(=O)[C@@]2(C)[C@H]([C@H](OC(=O)c3ccccc3)[C@]3(O)C[C@H](OC(=O)[C@H](O)[C@@H](NC(=O)c4ccccc4)c4ccccc4)C(C)=C1C3(C)C)[C@]1(OC(C)=O)CO[C@@H]1C[C@@H]2O [Taxol]
viability (%), Mean value (HeLa): 75.4% | The viability (BJ; 1st week (LC50), 0 h): 0.6817 | The absorbance, group - Blank (BJ; 1st week (LC50), 0 h): 0.9194 | The absorbance, Mean value (BJ; 1st week (LC50), 0 h): 1.2407 | The absorbance (BJ; 1st week (LC50), 0 h): 1.2557 and 1.2397 and 1.2268 | The viability (BJ; 1st week (LC50), 12 h): 0.3531 | The absorbance, group - Blank (BJ; 1st week (LC50), 12 h): 0.1792 | The absorbance, Mean value (BJ; 1st week (LC50), 12 h): 0.5006 | The absorbance (BJ; 1st week (LC50), 12 h): 0.504 and 0.4951 and 0.5027 | The viability (BJ; 1st week (LC50), 24 h): 0.1484 | The absorbance, group - Blank (BJ; 1st week (LC50), 24 h): 0.1674 | The absorbance, Mean value (BJ; 1st week (LC50), 24 h): 0.4887 | The absorbance (BJ; 1st week (LC50), 24 h): 0.492 and 0.4863 and 0.4879 | The viability (BJ; 1st week (LC50), 48 h): 0.6457 | The absorbance, group - Blank (BJ; 1st week (LC50), 48 h): 1.3032 | The absorbance, Mean value (BJ; 1st week (LC50), 48 h): 1.6245 | The absorbance (BJ; 1st week (LC50), 48 h): 1.6877 and 1.5017 and 1.6842 | The viability (BJ; 1st week (LC50), 4 d): 0.5117 | The absorbance, group - Blank (BJ; 1st week (LC50), 4 d): 1.1564 | The absorbance, Mean value (BJ; 1st week (LC50), 4 d): 1.4777 | The absorbance (BJ; 1st week (LC50), 4 d): 1.4687 and 1.4879 and 1.4766 | The viability (BJ; 1st week (LC50), 7 d): 0.4809 | The absorbance, group - Blank (BJ; 1st week (LC50), 7 d): 1.0576 | The absorbance, Mean value (BJ; 1st week (LC50), 7 d): 1.3790 | The absorbance (BJ; 1st week (LC50), 7 d): 1.3256 and 1.3677 and 1.4436 | The viability (BJ; 2nd week (recovery), 0 h): 0.8858 | The absorbance, group - Blank (BJ; 2nd week (recovery), 0 h): 0.8852 | The absorbance, Mean value (BJ; 2nd week (recovery), 0 h): 1.2065 | The absorbance (BJ; 2nd week (recovery), 0 h): 1.1468 and 1.2843 and 1.1885 | The viability (BJ; 2nd week (recovery), 24 h): 2.1460 | The absorbance, group - Blank (BJ; 2nd week (recovery), 24 h): 1.0893 | The absorbance, Mean value (BJ; 2nd week (recovery), 24 h): 1.4107 | The absorbance (BJ; 2nd week (recovery), 24 h): 1.3211 and 1.5144 and 1.3966 | The viability (BJ; 2nd week (recovery), 48 h): 0.1254 | The absorbance, group - Blank (BJ; 2nd week (recovery), 48 h): 0.1415 | The absorbance, Mean value (BJ; 2nd week (recovery), 48 h): 0.4629 | The absorbance (BJ; 2nd week (recovery), 48 h): 0.451 and 0.4672 and 0.4704 | The viability (BJ; 2nd week (recovery), 4 d): 0.7693 | The absorbance, group - Blank (BJ; 2nd week (recovery), 4 d): 1.5524 | The absorbance, Mean value (BJ; 2nd week (recovery), 4 d): 1.8738 | The absorbance (BJ; 2nd week (recovery), 4 d): 1.8912 and 1.9201 and 1.8101 | The cytotoxicity (BJ; 12 h): 0.6469 | The cytotoxicity (BJ; 7 d): 0.5191 | The absorbance, Mean value (PC-3; 1st week (LC50), 0 h): 0.693 | The absorbance (PC-3; 1st week (LC50), 0 h): 0.7147 and 0.7027 and 0.6625 | The absorbance, Mean value (PC-3; 1st week (LC50), 12 h): 0.567 | The absorbance (PC-3; 1st week (LC50), 12 h): 0.5126 and 0.6101 and 0.5779 | The absorbance, Mean value (PC-3; 1st week (LC50), 24 h): 0.692 | The absorbance, group - Blank (PC-3; 1st week (LC50), 24 h): 0.5326 | The absorbance (PC-3; 1st week (LC50), 24 h): 0.7192 and 0.6542 and 0.7011 | The absorbance, Mean value (PC-3; 1st week (LC50), 48 h): 1.747 | The absorbance, group - Blank (PC-3; 1st week (LC50), 48 h): 1.5885 | The absorbance (PC-3; 1st week (LC50), 48 h): 1.9128 and 1.6455 and 1.6838 | The absorbance, Mean value (PC-3; 1st week (LC50), 4 d): 1.266 | The absorbance, group - Blank (PC-3; 1st week (LC50), 4 d): 1.1072 | The absorbance (PC-3; 1st week (LC50), 4 d): 1.1723 and 1.5491 and 1.0768 | The absorbance, Mean value (PC-3; 2nd week (recovery), 0 h): 0.5354 | The absorbance (PC-3; 2nd week (recovery), 0 h): 0.5937 and 0.5232 and 0.4893 | The absorbance, Mean value (PC-3; 2nd week (recovery), 24 h): 1.6693 | The absorbance, group - Blank (PC-3; 2nd week (recovery), 24 h): 1.5104 | The absorbance (PC-3; 2nd week (recovery), 24 h): 1.3804 and 1.6987 and 1.9288 | The absorbance, Mean value (PC-3; 2nd week (recovery), 48 h): 0.7660 | The absorbance, group - Blank (PC-3; 2nd week (recovery), 48 h): 0.6071 | The absorbance (PC-3; 2nd week (recovery), 48 h): 0.795 and 0.7948 and 0.7081 | The absorbance, Mean value (PC-3; 2nd week (recovery), 4 d): 1.2875 | The absorbance, group - Blank (PC-3; 2nd week (recovery), 4 d): 1.1286 | The cytotoxicity (PC-3; human, 12 h, 220 nM): 0.5920 | The viability (PC-3; human, 12 h, 220 nM): 0.3649 | cell counts (C-6; 1st week (LC50), 0 h): 6111 and 7077 and 4897 | cell counts, Mean value (C-6; 1st week (LC50), 0 h): 6028 | cell counts (C-6; 1st week (LC50), 12 h): 3726 and 4240 | cell counts, Mean value (C-6; 1st week (LC50), 12 h): 4469 | cell counts (C-6; 1st week (LC50), 24 h): 3895 and 3853 and 3340 | cell counts, Mean value (C-6; 1st week (LC50), 24 h): 3696 | cell counts (C-6; 1st week (LC50), 48 h): 6630 and 6722 | cell counts, Mean value (C-6; 1st week (LC50), 48 h): 6243 | cell counts (C-6; 1st week (LC50), 4 d): 6026 and 6751 and 6905 | cell counts, Mean value (C-6; 1st week (LC50), 4 d): 6561 | cell counts, Mean value (C-6; 1st week (LC50), 7 d): 4450 | cell counts (C-6; 2nd week (recovery), 0 h): 2984 and 3948 and 4207 | cell counts, Mean value (C-6; 2nd week (recovery), 0 h): 3713 | cell counts (C-6; 2nd week (recovery), 24 h): 3392 and 4285 and 3984 | cell counts, Mean value (C-6; 2nd week (recovery), 24 h): 3887 | cell counts (C-6; 2nd week (recovery), 48 h): 3166 and 3930 | cell counts, Mean value (C-6; 2nd week (recovery), 48 h): 4184 | cell counts (C-6; 2nd week (recovery), 4 d): 4825 and 3184 | cell counts, Mean value (C-6; 2nd week (recovery), 4 d): 4031 | cell counts (C-6; 2nd week (recovery), 7 d): 3989 and 4316 and 3634 | cell counts, Mean value (C-6; 2nd week (recovery), 7 d): 3980 | response of the cells (C-6; composition: after 4 days of exposure): resistance to Taxol | cell counts, Mean value (CCD-1074sk; 1st week (LC50), 0 h): 8000 | cell counts (CCD-1074sk; 1st week (LC50), 0 h): 9000 and 7000 | cell counts, Mean value (CCD-1074sk; 1st week (LC50), 24 h): 15500 | cell counts (CCD-1074sk; 1st week (LC50), 24 h): 15000 and 16000 | cell counts, Mean value (CCD-1074sk; 1st week (LC50), 48 h): 10500 | cell counts (CCD-1074sk; 1st week (LC50), 48 h): 10000 and 11000 | cell counts, Mean value (CCD-1074sk; 1st week (LC50), 4 d): 4500 | cell counts (CCD-1074sk; 1st week (LC50), 4 d): 6000 and 3000 | cell counts, Mean value (CCD-1074sk; 1st week (LC50), 7 d): 11500 | cell counts (CCD-1074sk; 1st week (LC50), 7 d): 11000 and 12000 | cell counts, Mean value (CCD-1074sk; 2nd week (recovery), 0 h): 10500 | cell counts (CCD-1074sk; 2nd week (recovery), 0 h): 10000 and 11000 | cell counts, Mean value (CCD-1074sk; 2nd week (recovery), 48 h): 8000 | cell counts (CCD-1074sk; 2nd week (recovery), 48 h): 10000 and 6000 | cell counts, Mean value (CCD-1074sk; 2nd week (recovery), 4 d): 5500 | cell counts (CCD-1074sk; 2nd week (recovery), 4 d): 4000 and 7000 | cell counts (CCD-1074sk; 2nd week (recovery), 7 d): 18000 and 9000
